pIC50: −log10 of the molar value.
Target: T1, RORγ (Homo sapiens, UniProt P51449)
T1 sequence (P51449 269-508 limits assumed): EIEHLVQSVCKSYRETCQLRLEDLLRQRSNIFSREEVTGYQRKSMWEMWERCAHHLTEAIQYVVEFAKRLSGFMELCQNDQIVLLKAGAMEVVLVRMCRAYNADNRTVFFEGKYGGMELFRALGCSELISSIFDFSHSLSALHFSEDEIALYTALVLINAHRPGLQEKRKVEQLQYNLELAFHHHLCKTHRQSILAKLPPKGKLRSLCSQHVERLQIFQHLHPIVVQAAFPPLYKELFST
Experiment: RORγ GAL4 reporter gene assay
Conditions: mean pIC50, inhibition of RORγ (GAL4-RORγ-LBD) in 293FT cells, luciferase readout, overnight incubation
Description: The RORγ ligand-binding domain (LBD) was fused to the yeast GAL4 DNA binding domain (DBD) and placed under the control of the human cytomegalovirus (CMV) immediate early promoter, using expression vector pFN26A (Promega) and standard recombinant DNA cloning methods.
To monitor the inhibitory effect of compounds on RORγ, a transcriptional reporter construct was used. The pGL4.35 vector (Promega) contains nine copies of the GAL4 Upstream Activator Sequence (UAS). This sequence drives the transcription of the luciferase reporter gene luc2P in response to binding of a fusion protein containing the GAL4 DNA binding domain, as for example expressed by the GAL4-RORγ-LBD and GAL4-VP16 expression vectors described above.
The day after transfection, cells were plated into 96 well plates, test compound was added and the plates were incubated overnight. Subsequently, the firefly luciferase activity was quantified using luciferase detection reagent and luminescence readout.
1500 μL of this reagent mixture was added to 5 μg of GAL4 fusion protein expression vector and 5 μg of the transcriptional reporter construct, and incubated at RT for 20 minutes.
Subsequently, the cells were washed with Phosphate Buffered Saline (PBS) (Lonza), after which the PBS was removed. To dissociate the cells, 1 ml of TrypLE Express (Invitrogen) was added to the flask, followed by incubation at RT until the cells visually started to detach. Cells were collected in 5 mL of assay medium (DMEM culture medium (Lonza), 10% dialyzed FBS (Invitrogen) and Pen/Strep (Lonza)) to achieve a single cell suspension. 10×10^6 cells were spun down and re-suspended in 10 mL of assay medium. Subsequently, the cell suspension was added to the transfection mix tube, and then transferred as a whole to a T75 flask (Greiner), followed by overnight (16-24 hours) incubation at 37° C. and 5% CO2.
For compound screening, the cells were harvested (as described above) and counted. […] 80 μL of cell suspension (60,000 cells) was plated per well into a white, flat bottom, tissue culture treated, 96 well screening plates (Greiner).
Test compounds were diluted, starting from a 10 mM dimethylsulfoxide (DMSO) stock solution, to serial dilutions in DMSO at 500× the final test concentration. Subsequently, these solutions were diluted to 5× the final test concentration in two 10-fold-dilution steps in assay medium. The final DMSO concentration of the 5× test compound solution was 1%. 20 μL of the 5× test compound solution was added to each test well of the 96 well plate previously plated with 80 μl cell suspension, resulting in the final test concentration with 0.2% DMSO.
The plates were incubated overnight (16-24 hours) at 37° C. and 5% CO2.
For the luciferase readout, the luciferase reagent (Britelite Plus, Perkin Elmer) was brought to RT. […] The luciferase luminescence signal was measured using a Wallac Victor Microplate Reader (Perkin Elmer).
The half maximum inhibitory concentration (IC50) values for the test compounds were calculated from the luciferase signal using GraphPad Prism software (GraphPad Software).

| SMILES | pIC50 |
| --- | --- |
| CCNS(=O)(=O)c1ccc(CC(=O)Nc2ccc(C(O)(C(F)(F)F)C(F)(F)F)cc2)cc1 [Example 10, 2-(4-(N-ethylsulfamoyl)phenyl)-N-(4-(1,1,1,3,3,3-hexafluoro-2-hydroxypropan-2-yl)phenyl)acetamide] | ≥ 6.00 |
| CCS(=O)(=O)c1ccc(CC(=O)Nc2ccc(C(O)(C3CC3)C(F)(F)F)cc2)cc1 (stereo not shown) [Example 73, N-(4-(1-cyclopropyl-2,2,2-trifluoro-1-hydroxyethyl)phenyl)-2-(4-(ethylsulfonyl)phenyl)acetamide] | ≥ 6.00 |
| CCS(=O)(=O)c1ccc(CC(=O)Nc2ccc(C(O)(c3ccccc3)C(F)(F)F)cc2)cc1 (stereo not shown) [Example 97, 2-(4-(ethylsulfonyl)phenyl)-N-(4-(2,2,2-trifluoro-1-hydroxy-1-phenylethyl)phenyl)acetamide] | ≥ 6.00 |
| Cc1cc(NC(=O)Cc2ccc(S(=O)(=O)NC3CC3)cc2)ccc1C(O)(C(F)(F)F)C(F)(F)F [Example 32, 2-(4-(N-cyclopropylsulfamoyl)phenyl)-N-(4-(1,1,1,3,3,3-hexafluoro-2-hydroxypropan-2-yl)-3-methylphenyl)acetamide] | ≥ 7.00 |
| Nc1cc(C(O)(C(F)(F)F)C(F)(F)F)ccc1NC(=O)Cc1ccc(S(=O)(=O)CC2CC2)cc1 [Example 57, N-(2-amino-4-(1,1,1,3,3,3-hexafluoro-2-hydroxypropan-2-yl)phenyl)-2-(4-((cyclopropylmethyl)sulfonyl)phenyl)acetamide] | ≥ 6.00 |
| O=C(Cc1cccc(S(=O)(=O)NC2CC2)c1)Nc1ccc(C(O)(C(F)(F)F)C(F)(F)F)cc1 [Example 12, 2-(3-(N-cyclopropylsulfamoyl)phenyl)-N-(4-(1,1,1,3,3,3-hexafluoro-2-hydroxypropan-2-yl)phenyl)acetamide] | ≥ 6.00 |
| CCC(O)(c1ccc(NC(=O)Cc2ccc(S(=O)(=O)CC3CC3)cc2)cc1)C(F)(F)F (stereo not shown) [Example 83, 2-(4-((cyclopropylmethyl)sulfonyl)phenyl)-N-(4-(1,1,1-trifluoro-2-hydroxybutan-2-yl)phenyl)acetamide] | ≥ 8.00 |
| Cc1cc(C(O)(C(F)(F)F)C(F)(F)F)ccc1NC(=O)Cc1ccc(S(=O)(=O)NC2CC2)cc1 [Example 34, 2-(4-(N-cyclopropylsulfamoyl)phenyl)-N-(4-(1,1,1,3,3,3-hexafluoro-2-hydroxypropan-2-yl)-2-methylphenyl)acetamide] | ≥ 6.00 |
| CCOC(c1ccc(NC(=O)Cc2ccc(S(=O)(=O)CC)cc2)cc1)(C(F)(F)F)C(F)(F)F [Example 48, N-(4-(2-ethoxy-1,1,1,3,3,3-hexafluoropropan-2-yl)phenyl)-2-(4-(ethylsulfonyl)phenyl)acetamide] | ≥ 6.00 |

Next, values leading:

| pIC50 | SMILES |
| --- | --- |
| ≥ 8.00 | O=C(Cc1ccc(S(=O)(=O)CC2CC2)cc1)Nc1ccc(C(O)(C(F)(F)F)C(F)(F)F)cc1F [Example 46, 2-(4-((cyclopropylmethyl)sulfonyl)phenyl)-N-(2-fluoro-4-(1,1,1,3,3,3-hexafluoro-2-hydroxypropan-2-yl)phenyl)acetamide] |
| ≥ 6.00 | COc1cc(NC(=O)Cc2ccc(S(=O)(=O)CC3CC3)cc2)ccc1C(O)(C(F)(F)F)C(F)(F)F [Example 56, 2-(4-((cyclopropylmethyl)sulfonyl)phenyl)-N-(4-(1,1,1,3,3,3-hexafluoro-2-hydroxypropan-2-yl)-3-methoxyphenyl)acetamide] |
| ≥ 7.00 | O=C(Cc1ccc(S(=O)(=O)CC2CC2)cc1)Nc1ccc(C(O)(C(F)(F)F)C(F)(F)F)c(Cl)c1 [Example 62, N-(3-chloro-4-(1,1,1,3,3,3-hexafluoro-2-hydroxypropan-2-yl)phenyl)-2-(4-((cyclopropylmethyl)sulfonyl)phenyl)acetamide] |
| ≥ 8.00 | Cc1cc(NC(=O)Cc2ccc(S(=O)(=O)CC3CC3)cc2)ccc1C(O)(C(F)(F)F)C(F)(F)F [Example 44, 2-(4-((cyclopropylmethyl)sulfonyl)phenyl)-N-(4-(1,1,1,3,3,3-hexafluoro-2-hydroxypropan-2-yl)-3-methylphenyl)acetamide] |

Source: patent US9738600B2, “ROR gamma (RORγ) modulators” (LEAD PHARMA CEL MODELS IP B.V., priority 2013, dated 2017)
